Test results reported in patent US20130053372A1, “5-HT RECEPTOR MODULATORS” (Cambridge Enterprise Limited, priority 2010, published 2013).

What was measured:
gp5-HT1B [1] = biological target: T1, gp5-HT1B (Cavia porcellus, UniProt O08892); test: Guinea-pig iliac artery functional assay at gp5-HT1B (GPI); format: cell-based; set-up: from tissue; host or cells: guinea-pig common iliac artery segments; conditions: classified as antagonism, agonism or no effect at 10 μM, against 5-nonyloxytryptamine contraction; monohydrochloride salt
Experimental: Protocol for Determination of Efficacy at gp5-HT1B Receptors in the Guinea-Pig Iliac Artery. (GPI)
Guinea-pig common iliac artery segments (1.0-1.5 mm long) from Dunkin-Harley guinea-pigs (250 g-500 g) were mounted under normalized tension in oxygenated (95% O2; 5% CO2) Krebs-Henseleit solution (NaCl, 118 mM; KCl, 4.7 mM; MgSO4, 1.2 mM; KH2PO4, 1.2 mM; NaHCO3, 25 mM; CaCl2, 2.5 mM; D-glucose, 11 mM; and with indomethacin, 10 μM). After 30 min equilibration, the vessels were precontracted with 5-HT (10 μM) and tested for endothelial integrity by administration of carbachol (10 μM), endothelium-intact vessels (relaxation ≧90% to carbachol) were used for the experiments. Concentration/contraction curves to cumulative addition of 5-nonyloxytryptamine (5-NOT; a 5-HT1B receptor-selective agonist) were constructed in 25 mM KCl Krebs-Henseleit solution (standard Krebs-Henseleit solution in which the KCl concentration was increased to 25 mM by equimolar substitution of NaCl). Vessels were incubated with putative antagonists for 30 min before construction of a concentration/contraction curve for 5-NOT. Contractile responses were expressed as a percentage of the tone induced by Krebs-Henseleit solution containing 90 mM KCl after substitution of an equivalent amount of NaCl with KCl in standard Krebs-Henseleit solution. Data were analysed using non-linear procedures by fitting to a logistic equation: E=(Rmax.[A]^nH)/EC50^nH+[A]^nH), where E is the contraction induced, [A] the concentration of the agonist, Rmax the maximal increase in tension induced, nH the slope function and EC50 the concentration of producing half the maximal contractile tone. Potency was assessed using the Gaddum equation: […] where [A] is the concentration of the putative antagonist and Ka its affinity constant at the 5-HT1B receptor. Compounds are classified as having antagonism, agonism or no effect at a dose concentration of 10 μM.

gp5-HT1B [2] = biological target: T1, gp5-HT1B; test: Guinea-pig frontal cortex membrane binding at gp5-HT1B (GPF); set-up: from tissue; host or cells: guinea-pig frontal cortex membranes; conditions: monohydrochloride salt; for Kd: Kd from IC50 by Cheng & Prusoff, read-out: (GPF) Guinea-Pig Frontal Cortex membrane binding Affinity at gp5-HT1B Kd; for IC50: [3H]GR125743 displacement
Experimental: Binding Protocol for Determination of Affinity in gp5-HY1B in Guinea-Pig Frontal Cortex Membranes. (GPF)
Guinea-pig frontal cortex membranes were resuspended in a buffer (50 mM Tris-HCl, 4 mM MgCl, 2.5 mM CaCl2, 1 mM EDTA and 120 mM NaCl pH 7.4) to a final concentration of 5-6 μg protein μl^−1. Receptor binding was initiated by the addition of membranes and carried out in a volume of 0.5 ml at 27° C. Non-specific binding was determined by pre-incubation for 15 min with 10 μM SB214461 (N-(3-(2-(dimethylamino)ethoxy)-4-methoxyphenyl)-2′-methyl-4′-(5-methyl-1,2,4-oxadiazol-3-yl)biphenyl-4-carboxamide, Eur. J. Pharmacol. 1997, 331, 169-174). The amount of binding in the presence or absence of a competing ligand was determined by incubation at 27° C. for 60 min with 0.6 nM [N-methyl ^3H] GR125743 (GE Life Science Products). Incubation was terminated by rapid vacuum filtration through GF/B glass fibre filters that had been presoaked in 3% polyethylenimine. Samples were washed 3 times with 1.5 ml ice-cold buffer (50 mM Tris-HCl, pH 7.4) and bound radioactivity determined by liquid scintillation counting after leaving the filters in contact with the scintillation fluid for at least 4 h before counting for 5 min in a liquid scintillation analyzer.
(§1) Specific binding was determined as B—BNS/(BTot—BNS) where B is the binding in the presence of a given competing ligand, BNS is the non-specific binding of radioligand (i.e. the binding in the presence of 10 μM SB214461), and BTot is the amount of binding of radioligand in the absence of a competing ligand. Data for specific binding as a function of the concentration of competing ligand were fitted to a single-site model to obtain a value for IC50. Kd values were derived from IC50 by the Cheng & Prusoff equation (Cheng Y, Prusoff W H (1973). Biochem Pharmacol 22, 3099-3108).

rat r5-HT1B receptors = biological target: T2, rat r5-HT1B receptors (Rattus norvegicus, UniProt P28564); test: Binding affinity at rat r5-HT1B receptors, rat cerebral cortex membrane binding (RBA); conditions: value in parentheses; monohydrochloride salt
T2 construct: from tissue
Experimental: Binding Protocol for Determination of Affinity at rat r5-HT 1B Receptors (RBA)
This binding affinity protocol was performed according to standard conditions disclosed in Eur. J. Pharmacol. 1985, 118, 1-12.

human h5-HT1B receptor = human h5-HT1B receptor (Homo sapiens, UniProt P28222); test: Binding affinity at human h5-HT1B receptors (HBA); conditions: [3H]GR125743 displacement; Kd from IC50 by Cheng & Prusoff; monohydrochloride salt
Experimental: Binding Protocol for Determination of Binding Affinity at Human […] Receptors (HBA)
Membrane preparations (5 μg in a volume of 100 μl per sample) expressing the human h5-HT1B receptor were preincubated at 27° C. in buffer (50 mM Tris HCl, 10 mM MgCl2 and 1 mM EDTA; pH 7.4) with or without 10 μM SB214461 (N-(3-(2-(dimethylamino)ethoxy)-4-methoxyphenyl)-2′-methyl-4′-(5-methyl-1,2,4-oxadiazol-3-yl)biphenyl-4-carboxamide, Eur. J. Pharmacol. 1997, 331, 169-174) (to determine non-specific binding). Receptor binding was determined by incubation at 27° C. with 3.5 nM [N-methyl-^3H] GR125743 (GE Life Science Products) for 90 min. The incubations were terminated by rapid vacuum filtration through GF/B glass fibre filters that had been presoaked in 3% polyethylenimine. Samples were washed 3 times with 1.5 ml ice-cold buffer (50 mM Tris-HCl, pH 7.4) and bound radioactivity determined by liquid scintillation counting after leaving the filters in contact with the scintillation fluid (4 ml Quicksafe ‘A’, Zinsser, Maidenhead, UK) for at least 4 h before counting for 5 min in a liquid scintillation analyzer.
as §1, with “[…].” for “IC50.”

T1 sequence (O08892 whole entry): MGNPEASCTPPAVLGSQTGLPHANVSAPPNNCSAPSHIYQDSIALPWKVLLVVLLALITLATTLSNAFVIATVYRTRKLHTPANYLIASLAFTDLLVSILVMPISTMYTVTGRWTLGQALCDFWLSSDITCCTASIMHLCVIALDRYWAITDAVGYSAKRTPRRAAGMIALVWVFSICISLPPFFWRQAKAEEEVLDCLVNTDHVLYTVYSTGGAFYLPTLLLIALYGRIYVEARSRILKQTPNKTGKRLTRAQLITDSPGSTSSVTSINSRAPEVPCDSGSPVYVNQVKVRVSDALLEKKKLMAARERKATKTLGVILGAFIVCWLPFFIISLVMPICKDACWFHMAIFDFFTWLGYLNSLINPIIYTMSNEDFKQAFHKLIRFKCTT
human h5-HT1B receptor, sequence (P28222 whole entry): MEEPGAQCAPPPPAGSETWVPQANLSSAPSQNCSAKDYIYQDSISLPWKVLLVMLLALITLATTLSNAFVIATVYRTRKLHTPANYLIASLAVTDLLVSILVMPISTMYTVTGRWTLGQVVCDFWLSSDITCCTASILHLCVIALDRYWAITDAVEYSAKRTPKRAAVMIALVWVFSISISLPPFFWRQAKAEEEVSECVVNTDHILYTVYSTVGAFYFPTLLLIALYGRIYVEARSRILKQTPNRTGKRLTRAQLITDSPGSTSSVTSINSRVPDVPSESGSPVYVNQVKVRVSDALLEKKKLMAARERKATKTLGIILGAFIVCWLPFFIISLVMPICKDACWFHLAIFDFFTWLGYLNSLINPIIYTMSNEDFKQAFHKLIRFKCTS
T2 sequence (P28564 whole entry): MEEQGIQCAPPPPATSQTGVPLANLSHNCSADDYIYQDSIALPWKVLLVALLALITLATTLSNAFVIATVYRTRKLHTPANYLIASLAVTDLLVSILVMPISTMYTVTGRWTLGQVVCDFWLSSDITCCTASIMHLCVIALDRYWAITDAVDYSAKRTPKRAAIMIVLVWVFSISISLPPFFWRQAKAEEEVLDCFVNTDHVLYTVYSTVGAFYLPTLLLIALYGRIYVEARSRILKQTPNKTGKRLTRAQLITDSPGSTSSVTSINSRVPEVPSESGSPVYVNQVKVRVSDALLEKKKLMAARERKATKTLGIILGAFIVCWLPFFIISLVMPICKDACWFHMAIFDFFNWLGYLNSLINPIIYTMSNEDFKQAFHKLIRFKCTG

SMILES	(GPI) Guinea-Pig Iliac Artery functional assay at gp5-HT1B (gp5-HT1B [1])	Kd (gp5-HT1B [2])	IC50 (gp5-HT1B [2])	IC50 (rat r5-HT1B receptors)	Kd (human h5-HT1B receptor)
COc1ccc(N2CCCC2=O)cc1N1CCC(N(C)C)CC1 [13e, 1-(3-(4-(dimethylamino)piperidin-1-yl)-4-methoxyphenyl)pyrrolidin-2-one, reference compound]	Antagonist				
COc1ccc(N2CCCC2=O)cc1N(C)CCN(C)C [13f, 1-(3-((2-(dimethylamino)ethyl)(methyl)amino)-4-methoxyphenyl)pyrrolidin-2-one, reference compound]	No effect				
COc1ccc(N2CCCC2=O)cc1N1CCN(C)CC1 [Example 5a, 1-(4-methoxy-3-(4-methylpiperazin-1-yl)phenyl)pyrrolidin-2-one]	Antagonist	15000 nM	30000 nM		
COc1ccc(N2CCCC2=O)cc1N1C[C@@H](C)N[C@@H](C)C1 [Example 13a, 1-(3-((3R,5S)-3,5-dimethylpiperazin-1-yl)-4-methoxyphenyl)pyrrolidin-2-one]	Antagonist				
COc1ccc(N2CCOC2=O)cc1N1CCN(C)CC1 [Example 13b, 3-(4-methoxy-3-(4-methylpiperazin-1-yl)phenyl)oxazolidin-2-one]	Antagonist				
COc1ccc(N2CCCC2=O)cc1N1CCCN(C)CC1 [Example 13c, 1-(4-methoxy-3-(4-methyl-1,4-diazepan-1-yl)phenyl)pyrrolidin-2-one]	Antagonist				
COc1ccc(N2CCOC2=O)cc1N1C[C@@H](C)N[C@@H](C)C1 [Example 13d, 3-(3-((3R,5S)-3,5-dimethylpiperazin-1-yl)-4-methoxyphenyl)oxazolidin-2-one]	No effect				
COc1ccc(N2CCCS2(=O)=O)cc1N1CCCN(C)CC1 [Example 18b, 2-(4-methoxy-3-(4-methyl-1,4-diazepan-1-yl)phenyl)-1,1-dioxoisothiazolidine]				12000 nM	
C[C@@H]1CN(c2cc(N3CCCC3=O)cc3c2OCC3)C[C@H](C)N1 [Example 26b, 1-(7-((3S,5R)-3,5-dimethylpiperazin-1-yl)-2,3-dihydrobenzofuran-5-yl)pyrrolidin-2-one]				9600 nM	
CN1CCN(c2cc(N3CCCC3=O)ccc2F)CC1 [Example 30, 1-(4-fluoro-3-(4-methylpiperazin-1-yl)phenyl)pyrollidin-2-one]	Antagonist	2000 nM	4000 nM		
CN1CCN(c2cc(N3CCCC3=O)cc3ccoc23)CC1 [Example 45, 1-(7-(4-methylpiperazin-1-yl)benzofuran-5-yl)pyrrolidin-2-one]	Antagonist	200 nM	400 nM		4500 nM
CN1CCN(c2cc(N3CCOC3=O)cc3ccoc23)CC1 [Example 47a, 3-(7-(4-methylpiperazin-1-yl)benzofuran-5-yl)oxazolidin-2-one]	Antagonist	225 nM	450 nM		13500 nM
COC(=O)N1CCN(c2cc(N3CCN(C)CC3)c3occc3c2)S1(=O)=O [Example 49a, methyl 5-(7-(4-methylpiperazin-1-yl)benzofuran-5-yl)-1,1-dioxo-1,2,5-thiadiazolidine-2-carboxylate]	Antagonist	230 nM	460 nM		1800 nM
CN1CCN(c2cc(N3CCNS3(=O)=O)cc3ccoc23)CC1 [Example 50a, 2-(7-(4-methylpiperazin-1-yl)benzofuran-5-yl)-1,1-dioxo-1,2,5-thiadiazolidine]	Antagonist	700 nM	1400 nM	860 nM	
